# Laboratory results from patent US20240190890A1, “MK2 INHIBITORS AND USES THEREOF” (Bristol-Myers Squibb Company, priority 2022, published 2024).
# Target: p38a activated, mitogen-activated protein kinase-activated protein kinase 2 (MAPKAP-K2 or MK2) enzyme (Homo sapiens (Human), UniProt P49137)
# Test: MK2 Omnia continuous-read kinase assay for compound potency
# Type: biochemical
# Settings: [MK-2]=0.4 nM, [ATP]=10 μM, [ST3-Sox]=10 μM; room temperature
# Summary of the method: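 Continuous Sox-peptide fluorescence read (ex360/em485) every 71 s over 2 h at room temperature. Reactions: 10 μM each of ATP (at apparent Km) and S/T3-Sox, 0.4 nM p38a-activated MK2, pH 7.5 Tris/MgCl2 buffer. Initial rates yield % inhibition and IC50; single-exponential kobs values yield apparent kinact/KI.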
# p38a activated, mitogen-activated protein kinase-activated protein kinase 2 (MAPKAP-K2 or MK2) enzyme, sequence (P49137 whole entry): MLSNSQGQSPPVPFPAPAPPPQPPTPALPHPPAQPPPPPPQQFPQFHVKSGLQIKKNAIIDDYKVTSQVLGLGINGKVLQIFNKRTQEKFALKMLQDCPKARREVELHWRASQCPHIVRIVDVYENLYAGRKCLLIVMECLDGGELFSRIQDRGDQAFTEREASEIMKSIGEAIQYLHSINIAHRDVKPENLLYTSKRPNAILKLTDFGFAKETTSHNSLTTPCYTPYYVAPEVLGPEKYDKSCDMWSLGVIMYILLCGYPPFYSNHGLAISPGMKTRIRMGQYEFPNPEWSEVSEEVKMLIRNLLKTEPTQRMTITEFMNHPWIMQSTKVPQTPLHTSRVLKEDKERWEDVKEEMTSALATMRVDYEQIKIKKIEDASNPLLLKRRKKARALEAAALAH
row,IC50,SMILES
1,0.002 µM,"C=Cc1cc(-c2ccc3c(ccc4sc5c(c43)NC[C@@H](C)NC5=O)n2)nc(COCC)n1 [Example I-22, (R)-3-(2-(ethoxymethyl)-6-vinylpyrimidin-4-yl)-10-methyl-9,10,11,12-tetrahydro-8H-[1,4]diazepino[5′,6′:4,5]thieno[3,2-f]quinolin-8-one]"
2,0.077 µM,"C=Cc1nn(C)nc1-c1ccc2c(ccc3sc4c(c32)NC[C@@H](C)NC4=O)n1 [Example I-232, (R)-10-methyl-3-(2-methyl-5-vinyl-2H-1,2,3-triazol-4-yl)-9,10,11,12-tetrahydro-8H-[1,4]diazepino[5′,6′:4,5]thieno[3,2-f]quinolin-8-one]"
3,0.003 µM,"C=Cc1cc(-c2ccc3c(ccc4sc5c(c43)NC[C@@H](C)NC5=O)n2)c(C(=O)OC)nn1 [Example I-137, methyl (R)-4-(10-methyl-8-oxo-9,10,11,12-tetrahydro-8H-[1,4]diazepino[5′,6′:4,5]thieno[3,2-f]quinolin-3-yl)-6-vinylpyridazine-3-carboxylate]"
4,0.02 µM,"C=Cc1cc(-c2ccc3c(ccc4sc5c(c43)NC[C@@H](C)NC5=O)n2)c(OC)cn1 [Example I-256, (R)-3-(5-methoxy-2-vinylpyridin-4-yl)-10-methyl-9,10,11,12-tetrahydro-8H-[1,4]diazepino[5′,6′:4,5]thieno[3,2-f]quinolin-8-one]"
5,0.004 µM,"[2H]c1c(C=C)ncc(C([2H])([2H])[2H])c1-c1ccc2c(ccc3sc4c(c32)NC[C@@H](C)NC4=O)n1 [Example I-249, (R)-10-methyl-3-(5-(methyl-d3)-2-vinylpyridin-4-yl-3-d)-9,10,11,12-tetrahydro-8H-[1,4]diazepino[5′,6′:4,5]thieno[3,2-f]quinolin-8-one]"

# Continued, compound first:
row,SMILES,IC50
1,"C#Cc1cc(-c2ccc3c(ccc4sc5c(c43)NC[C@@H](C)NC5=O)n2)cc(CO)n1 [Example I-98, (R)-3-(2-ethynyl-6-(hydroxymethyl)pyridin-4-yl)-10-methyl-9,10,11,12-tetrahydro-8H-[1,4]diazepino[5′,6′:4,5]thieno[3,2-f]quinolin-8-one]",0.06 µM
2,"C#Cc1cc(-c2ccc3c(ccc4sc5c(c43)NC[C@@H](C)NC5=O)n2)cc(C2=CCN(C)CC2)n1 [Example I-102, (R)-3-(6-ethynyl-1′-methyl-1′,2′,3′,6′-tetrahydro-[2,4′-bipyridin]-4-yl)-10-methyl-9,10,11,12-tetrahydro-8H-[1,4]diazepino[5′,6′:4,5]thieno[3,2-f]quinolin-8-one]",0.008 µM
3,"C#Cc1cc(-c2ccc3c(ccc4sc5c(c43)NC[C@@H](C)NC5=O)n2)ncn1 [Example I-38, (R)-3-(6-ethynylpyrimidin-4-yl)-10-methyl-9,10,11,12-tetrahydro-8H-[1,4]diazepino[5′,6′:4,5]thieno[3,2-f]quinolin-8-one]",0.005 µM
4,"C#Cc1nc(C#CC(C)(C)N)cc(-c2ccc3c(ccc4sc5c(c43)NC[C@@H](C)NC5=O)n2)n1 [Example I-65, (R)-3-(6-(3-amino-3-methylbut-1-yn-1-yl)-2-ethynylpyrimidin-4-yl)-10-methyl-9,10,11,12-tetrahydro-8H-[1,4]diazepino[5′,6′:4,5]thieno[3,2-f]quinolin-8-one]",0.132 µM
5,"C#Cc1cc(-c2ccc3c(ccc4sc5c(c43)NC[C@@H](C)NC5=O)n2)c(C(F)F)cn1 [Example I-92, (R)-3-(5-(difluoromethyl)-2-ethynylpyridin-4-yl)-10-methyl-9,10,11,12-tetrahydro-8H-[1,4]diazepino[5′,6′:4,5]thieno[3,2-f]quinolin-8-one]",0.017 µM
6,"C=Cc1cc(-c2ccc3c(ccc4sc5c(c43)NC[C@@H](C)NC5=O)n2)cc(N2CC(F)(F)C2)n1 [Example I-184, (R)-3-(2-(3,3-difluoroazetidin-1-yl)-6-vinylpyridin-4-yl)-10-methyl-9,10,11,12-tetrahydro-8H-[1,4]diazepino[5′,6′:4,5]thieno[3,2-f]quinolin-8-one]",0.175 µM
